Laboratory results from patent publication EP3046573B1, “AMYLIN ANALOGUES” (Zealand Pharma A/S, priority 2013, dated 2015).
Numbered stars: 1 amine (or outer) side, 2 acyl side, 3 side chain; on linkers, the order of the positions; unused ones are H or OH. Bridge positions count the residues as written; N and C are the ends. Square brackets hold non-standard residues; d marks the D form. Peptide text beside a SMILES is read from it. * marks the point of attachment. C20 diacid = O=C(O)CCCCCCCCCCCCCCCCCCC(=O)*; γGlu = O=C(O)[C@H](CCC(=O)[*:2])N[*:1]; NMeI = CC[C@H](C)[C@H](NC)C(=O)O; Sar = CNCC(=O)O

How the values were obtained:
[1] = target: T1, human amylin receptor 3 (hAMYR3) consisting of hCTR2 co-expressed with human Receptor Activity Modifying Protein 3 (hRAMP3) (Homo sapiens, UniProt O60896+P30988); assay: hAMYR3 assay: induction of cAMP (AlphaScreen cAMP Assay kit) in COS7 cells expressing hAMYR3; assay type: cell-based
T1 construct: expressed in transfected cells
T1 sequence (P30988 25-474): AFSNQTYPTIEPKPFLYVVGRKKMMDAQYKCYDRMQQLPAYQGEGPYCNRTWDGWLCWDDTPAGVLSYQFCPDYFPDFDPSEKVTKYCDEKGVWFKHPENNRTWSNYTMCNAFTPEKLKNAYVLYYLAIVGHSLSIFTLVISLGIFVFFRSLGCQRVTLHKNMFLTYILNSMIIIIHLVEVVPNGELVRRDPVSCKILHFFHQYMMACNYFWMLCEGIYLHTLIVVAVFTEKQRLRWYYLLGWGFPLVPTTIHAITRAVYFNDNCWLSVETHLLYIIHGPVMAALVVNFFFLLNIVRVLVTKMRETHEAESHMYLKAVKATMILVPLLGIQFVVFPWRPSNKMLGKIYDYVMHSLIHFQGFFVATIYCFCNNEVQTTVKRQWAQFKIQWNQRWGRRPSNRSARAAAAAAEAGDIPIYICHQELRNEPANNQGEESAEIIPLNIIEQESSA
T1 sequence (O60896 24-148 partner): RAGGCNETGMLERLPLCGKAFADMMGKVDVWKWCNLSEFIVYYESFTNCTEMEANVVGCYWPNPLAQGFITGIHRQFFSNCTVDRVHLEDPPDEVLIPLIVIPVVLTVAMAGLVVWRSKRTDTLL
In short: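 cAMP accumulation read by AlphaScreen in lysates of RAMP-naive COS7 cells stably transfected with hCTR2 plus hRAMP3. Cells exposed to peptide dilutions for 15 min, 37° C, with 100 µM IBMX; 4PL fitting gave EC50 and efficacy relative to pramlintide.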

[2] = target: T2, human calcitonin receptor (hCTR2) (Homo sapiens, UniProt P30988); assay: hCTR2 assay: induction of cAMP (AlphaScreen cAMP Assay kit) in COS7 cells expressing hCTR2; assay type: cell-based
T2 construct: expressed in transfected cells
T2 sequence (P30988 25-474): T1 sequence (P30988 25-474)
In short: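 Cells were seeded one day ahead, washed, then exposed to rising peptide concentrations for 15 min at 37° C in the presence of 100 µM IBMX. After lysis for 10 min at room temperature, cAMP was quantified by AlphaScreen and EC50 values derived by 4PL fitting.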

[3] = Solubility assessment (turbidity absorbance at 325 nm); assay type: physicochemical; conditions: stock 2 mg/ml diluted 1:1, ambient temperature (typically 25°C), n=1; for Solubility, Acetate buffer pH 4: 100 mM acetate buffer pH 4.0; for Solubility, Acetate buffer pH 5: 100 mM acetate buffer pH 5.0; for Solubility, Histidine buffer pH 6: 100 mM histidine buffer pH 6.0; for Solubility, Histidine buffer pH 7: 100 mM histidine buffer pH 7.0; for Solubility, Phosphate buffer pH 6: 100 mM phosphate buffer pH 6.0; for Solubility, Phosphate buffer pH 7: 100 mM phosphate buffer pH 7.0; for Solubility, Phosphate buffer pH 7.5: 100 mM phosphate buffer pH7.5
In short: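 Turbidity read as absorbance at 325 nm (also 280 nm), single samples at ambient temperature (typically 25°C); ≤ 0.02 units counts as ≥ 1 mg/ml soluble. Samples made by 1:1 dilution of a 2 mg/ml acidic stock into 100 mM acetate, histidine or phosphate buffers, pH 4.0–7.5.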

Compound | EC50 [1] | EC50 [2] | Solubility, Acetate buffer pH 4 [3] | Solubility, Acetate buffer pH 5 [3] | Solubility, Histidine buffer pH 6 [3] | Solubility, Histidine buffer pH 7 [3] | Solubility, Phosphate buffer pH 6 [3] | Solubility, Phosphate buffer pH 7 [3] | Solubility, Phosphate buffer pH 7.5 [3]
CC[C@H](C)[C@@H](C(=O)N[C@@H](CC(C)C)C(=O)N[C@@H](CO)C(=O)N[C@@H](CO)C(=O)N[C@H](C(=O)N[C@@H](CC(N)=O)C(=O)N[C@H](C(=O)NCC(=O)N[C@@H](CO)C(=O)N[C@@H](CC(N)=O)C(=O)N[C@H](C(=O)N1CCC[C@H]1C(N)=O)[C@@H](C)O)C(C)C)[C@@H](C)O)N(C)C(=O)[C@H](C)NC(=O)CN(C)C(=O)[C@H](Cc1ccccc1)NC(=O)[C@H](CC(N)=O)NC(=O)[C@H](CC(N)=O)NC(=O)[C@H](CO)NC(=O)[C@H](CO)NC(=O)[C@H](CCCNC(=N)N)NC(=O)[C@H](Cc1c[nH]cn1)NC(=O)[C@H](CC(C)C)NC(=O)[C@H](Cc1ccccc1)NC(=O)[C@H](CCC(=O)O)NC(=O)[C@H](C)NC(=O)[C@H](CC(C)C)NC(=O)[C@H](CCCNC(=N)N)NC(=O)[C@H](CCC(N)=O)NC(=O)[C@@H](NC(=O)[C@H](C)NC(=O)[C@@H]1CSSC[C@H](NC(=O)[C@H](CCCNC(=N)N)NC(=O)[C@H](CCCCN)NC(=O)CC[C@H](NC(=O)CCCCCCCCCCCCCCCCCCC(=O)O)C(=O)O)C(=O)N[C@@H](CC(N)=O)C(=O)N[C@@H]([C@@H](C)O)C(=O)N[C@@H](C)C(=O)N[C@@H]([C@@H](C)O)C(=O)N1)[C@@H](C)O [Compound 84, [19CD]-isoGlu-KRC()NTATC()ATQRLAEFLHRSSNNF-Gly(Me)-A-Ile(Me)-LSSTNVGSNTP-NH2] ({C20 diacid-γGlu}-KRCNTATCATQRLAEFLHRSSNNF[Sar]A[NMeI]LSSTNVGSNTP-NH2; disulfide 3-8) | 100 pM | 110 pM | SS (SS indicates solubility ≥ 1mg/ml) | SS (SS indicates solubility ≥ 1mg/ml) | SS (SS indicates solubility ≥ 1mg/ml) | SS (SS indicates solubility ≥ 1mg/ml) | SS (SS indicates solubility ≥ 1mg/ml) | SS (SS indicates solubility ≥ 1mg/ml) | SS (SS indicates solubility ≥ 1mg/ml)
CC[C@H](C)[C@@H](C(=O)N[C@@H](CC(C)C)C(=O)N[C@@H](CO)C(=O)N[C@@H](CO)C(=O)N[C@H](C(=O)N[C@@H](CC(N)=O)C(=O)N[C@H](C(=O)NCC(=O)N[C@@H](CO)C(=O)N[C@@H](CC(N)=O)C(=O)N[C@H](C(=O)NCC(N)=O)[C@@H](C)O)C(C)C)[C@@H](C)O)N(C)C(=O)[C@H](C)NC(=O)CN(C)C(=O)[C@H](Cc1ccccc1)NC(=O)[C@H](CC(N)=O)NC(=O)[C@H](CC(N)=O)NC(=O)[C@H](CO)NC(=O)[C@H](CO)NC(=O)[C@H](CCCNC(=N)N)NC(=O)[C@H](Cc1c[nH]cn1)NC(=O)[C@H](CC(C)C)NC(=O)[C@H](Cc1ccccc1)NC(=O)[C@H](CCC(=O)O)NC(=O)[C@H](C)NC(=O)[C@H](CC(C)C)NC(=O)[C@H](CCCNC(=N)N)NC(=O)[C@H](CCC(N)=O)NC(=O)[C@@H](NC(=O)[C@H](C)NC(=O)[C@@H]1CSSC[C@H](NC(=O)[C@H](CCCNC(=N)N)NC(=O)CC[C@H](NC(=O)CCCCCCCCCCCCCCCCCCC(=O)O)C(=O)O)C(=O)N[C@@H](CC(N)=O)C(=O)N[C@@H]([C@@H](C)O)C(=O)N[C@@H](C)C(=O)N[C@@H]([C@@H](C)O)C(=O)N1)[C@@H](C)O [Compound 96, [19CD]-isoGlu-RC()NTATC()ATQRLAEFLHRSSNNF-Gly(Me)-A-Ile(Me)-LSSTNVGSNTG-NH2] ({C20 diacid-γGlu}-RCNTATCATQRLAEFLHRSSNNF[Sar]A[NMeI]LSSTNVGSNTG-NH2; disulfide 2-7) | 5600 pM | 340 pM | SS (SS indicates solubility ≥ 1mg/ml) | SS (SS indicates solubility ≥ 1mg/ml) | SS (SS indicates solubility ≥ 1mg/ml) | SS (SS indicates solubility ≥ 1mg/ml) | SS (SS indicates solubility ≥ 1mg/ml) | SS (SS indicates solubility ≥ 1mg/ml) | SS (SS indicates solubility ≥ 1mg/ml)
CC[C@H](C)[C@@H](C(=O)N[C@@H](CC(C)C)C(=O)N[C@@H](CO)C(=O)N[C@@H](CO)C(=O)N[C@H](C(=O)N[C@@H](CC(N)=O)C(=O)N[C@H](C(=O)NCC(=O)N[C@@H](CO)C(=O)N[C@@H](CC(N)=O)C(=O)N[C@H](C(=O)N[C@@H](C)C(N)=O)[C@@H](C)O)C(C)C)[C@@H](C)O)N(C)C(=O)[C@H](C)NC(=O)CN(C)C(=O)[C@H](Cc1ccccc1)NC(=O)[C@H](CC(N)=O)NC(=O)[C@H](CC(N)=O)NC(=O)[C@H](CO)NC(=O)[C@H](CO)NC(=O)[C@H](CCCNC(=N)N)NC(=O)[C@H](Cc1c[nH]cn1)NC(=O)[C@H](CC(C)C)NC(=O)[C@H](Cc1ccccc1)NC(=O)[C@H](CCC(=O)O)NC(=O)[C@H](C)NC(=O)[C@H](CC(C)C)NC(=O)[C@H](CCCNC(=N)N)NC(=O)[C@H](CCC(N)=O)NC(=O)[C@@H](NC(=O)[C@H](C)NC(=O)[C@@H]1CSSC[C@H](NC(=O)[C@H](CCCNC(=N)N)NC(=O)CC[C@H](NC(=O)CCCCCCCCCCCCCCCCCCC(=O)O)C(=O)O)C(=O)N[C@@H](CC(N)=O)C(=O)N[C@@H]([C@@H](C)O)C(=O)N[C@@H](C)C(=O)N[C@@H]([C@@H](C)O)C(=O)N1)[C@@H](C)O [Compound 97, [19CD]-isoGlu-RC()NTATC()ATQRLAEFLHRSSNNF-Gly(Me)-A-Ile(Me)-LSSTNVGSNTA-NH2] ({C20 diacid-γGlu}-RCNTATCATQRLAEFLHRSSNNF[Sar]A[NMeI]LSSTNVGSNTA-NH2; disulfide 2-7) | 680 pM | 330 pM | SS (SS indicates solubility ≥ 1mg/ml) | SS (SS indicates solubility ≥ 1mg/ml) | SS (SS indicates solubility ≥ 1mg/ml) | SS (SS indicates solubility ≥ 1mg/ml) | SS (SS indicates solubility ≥ 1mg/ml) | SS (SS indicates solubility ≥ 1mg/ml) | SS (SS indicates solubility ≥ 1mg/ml)
CC[C@H](C)[C@@H](C(=O)N[C@@H](CC(C)C)C(=O)N[C@@H](CO)C(=O)N[C@@H](CO)C(=O)N[C@H](C(=O)N[C@@H](CC(N)=O)C(=O)N[C@H](C(=O)NCC(=O)N[C@@H](CO)C(=O)N[C@@H](CC(N)=O)C(=O)N[C@H](C(=O)N[C@H](C(N)=O)C(C)C)[C@@H](C)O)C(C)C)[C@@H](C)O)N(C)C(=O)[C@H](C)NC(=O)CN(C)C(=O)[C@H](Cc1ccccc1)NC(=O)[C@H](CC(N)=O)NC(=O)[C@H](CC(N)=O)NC(=O)[C@H](CO)NC(=O)[C@H](CO)NC(=O)[C@H](CCCNC(=N)N)NC(=O)[C@H](Cc1c[nH]cn1)NC(=O)[C@H](CC(C)C)NC(=O)[C@H](Cc1ccccc1)NC(=O)[C@H](CCC(=O)O)NC(=O)[C@H](C)NC(=O)[C@H](CC(C)C)NC(=O)[C@H](CCCNC(=N)N)NC(=O)[C@H](CCC(N)=O)NC(=O)[C@@H](NC(=O)[C@H](C)NC(=O)[C@@H]1CSSC[C@H](NC(=O)[C@H](CCCNC(=N)N)NC(=O)CC[C@H](NC(=O)CCCCCCCCCCCCCCCCCCC(=O)O)C(=O)O)C(=O)N[C@@H](CC(N)=O)C(=O)N[C@@H]([C@@H](C)O)C(=O)N[C@@H](C)C(=O)N[C@@H]([C@@H](C)O)C(=O)N1)[C@@H](C)O [Compound 98, [19CD]-isoGlu-RC()NTATC()ATQRLAEFLHRSSNNF-Gly(Me)-A-Ile(Me)-LSSTNVGSNTV-NH2] ({C20 diacid-γGlu}-RCNTATCATQRLAEFLHRSSNNF[Sar]A[NMeI]LSSTNVGSNTV-NH2; disulfide 2-7) | 1700 pM | 350 pM | SS (SS indicates solubility ≥ 1mg/ml) | SS (SS indicates solubility ≥ 1mg/ml) | SS (SS indicates solubility ≥ 1mg/ml) | SS (SS indicates solubility ≥ 1mg/ml) | II (II indicates solubility ≤ 1 mg/ml) | SS (SS indicates solubility ≥ 1mg/ml) | SS (SS indicates solubility ≥ 1mg/ml)
